# Measurements published in patent US6515025B2, “Use of ethynyl alanine amino diol compounds to inhibit enzymatic conversion of angiotensinogen to angiotensin I” (Pharmacia Corporation, priority 1991, dated 2003).
# Values joined by “and” are separate entries in the source; they are usually repeats but may differ in a detail not shown here. Equal values may be shown once.
# Experiment: Oral bioavailability studies in marmosets (plasma concentration by bioassay)
# Format: in vivo
# Conditions: marmoset; for Plasma Concentrations: individual animals
# Protocol: The bioavailability in marmosets and dogs was determined by sampling the blood via the femoral vein at various time points after administering the renin inhibitor compounds of the invention in polyethylene glycol 400 at an intragastric dose of 10 mg/kg or at an intravenous dose of 1 mg/kg. Compound concentration in plasma was determined using the bioassay technique described below. The percent bioavailability was calculated by dividing the area under the concentration-vs.-time curve obtained from the intragastric experiment by the area under the concentration-vs.-time curve obtained from the intravenous experiment (adjusting for different doses), and multiplying the result by 100%. The bioavailibility of Example 1 compound is 27% in marmosets and 33% in dogs.
# Renin inhibitor plasma concentrations were determined by a bioassay. The plasma samples were extracted with acetonitrile and the extract was evaporated to dryness under nitrogen. Residue was dissolved in 4% bovine serum albumin containing 0.9% NaCl and 5% EDTA. The dissolved residue (0.1 ml) was incubated with a reaction mixture containing human plasma (0.12 ml), 5% phenylmethysulfonylfluoride (1.2 ul), 10% neomycin (2.4 ul), 0.5 M TES buffer (pH 7.4, 24 ul), and 0.6 mU/ml recombinant human renin (1000 U/mg, 50 ul) at 37° C. for 90 minutes. The renin activity was determined by a standard angiotensin I radioimmunoassay (New England Nuclear Corp.). The amount of test compound in the plasma was determined by comparing the extent of inhibition of renin activity with that produced by a known amount of test compound added to plasma and analyzed above.
smiles,measurement,setting,value
"C#CC[C@H](NC(=O)C(CC(=O)N(C)CCN(C)C)Cc1ccccc1)C(=O)NC(CC1CCCCC1)[C@@H](O)C(O)CC(C)C (relative stereo) [Example 1, N1-[1R*-[[[1S,1R*-(cyclohexylmethyl)-2S*,3R*-dihydroxy-5-methylhexyl]amino]carbonyl]-3-butynyl]-N4-[2-(dimethylamino)ethyl]-N4-methyl-2S*-(phenylmethyl)butanediamide]",Plasma Concentrations,"IG at 10 mg/kg, Test Run A, 30 min, 10 mg/kg",7258 ng/mL and 9322 ng/mL
same,Plasma Concentrations,"IG at 10 mg/kg, Test Run A, 1 hr, 10 mg/kg",1989 ng/mL and 1751 ng/mL
same,Plasma Concentrations,"IG at 10 mg/kg, Test Run A, 2 hr, 10 mg/kg",1525 ng/mL and 1811 ng/mL
same,Plasma Concentrations,"IG at 10 mg/kg, Test Run A, 3 hr, 10 mg/kg",5289 ng/mL and 6935 ng/mL
same,Plasma Concentrations,"IG at 10 mg/kg, Test Run A, 4 hr, 10 mg/kg",742 ng/mL and 1766 ng/mL and 1217 ng/mL
same,Plasma Concentrations,"IG at 10 mg/kg, Test Run A, 5 hr, 10 mg/kg",369 ng/mL and 1397 ng/mL and 945 ng/mL
same,Plasma Concentrations,"IG at 10 mg/kg, Test Run A, 6 hr, 10 mg/kg",3177 ng/mL and 4412 ng/mL
same,Plasma Concentrations,"IG at 10 mg/kg, Test Run A, 8 hr, 10 mg/kg",3036 ng/mL and 3800 ng/mL
same,Plasma Concentrations,"IG at 10 mg/kg, Test Run B, 30 min, 10 mg/kg",1016 ng/mL and 1126 ng/mL
same,Plasma Concentrations,"IG at 10 mg/kg, Test Run B, 1 hr, 10 mg/kg",416 ng/mL and 5266 ng/mL and 12300 ng/mL
same,Plasma Concentrations,"IG at 10 mg/kg, Test Run B, 2 hr, 10 mg/kg",519 ng/mL and 4847 ng/mL and 13485 ng/mL
same,Plasma Concentrations,"IG at 10 mg/kg, Test Run B, 3 hr, 10 mg/kg",2751 ng/mL and 3640 ng/mL and 1400 ng/mL
same,Plasma Concentrations,"IG at 10 mg/kg, Test Run B, 4 hr, 10 mg/kg",459 ng/mL and 4502 ng/mL and 11470 ng/mL
same,Plasma Concentrations,"IG at 10 mg/kg, Test Run B, 5 hr, 10 mg/kg",545 ng/mL and 3718 ng/mL and 7783 ng/mL
same,Plasma Concentrations,"IG at 10 mg/kg, Test Run B, 6 hr, 10 mg/kg",2721 ng/mL and 1950 ng/mL
same,Plasma Concentrations,"IG at 10 mg/kg, Test Run B, 8 hr, 10 mg/kg",1566 ng/mL and 1868 ng/mL
same,Plasma Concentrations,"IV at 1 mg/kg, Test Run C, 2 min, 1 mg/kg",21579 ng/mL and 16641 ng/mL
same,Plasma Concentrations,"IV at 1 mg/kg, Test Run C, 15 min, 1 mg/kg",6756 ng/mL and 15283 ng/mL and 11628 ng/mL
same,Plasma Concentrations,"IV at 1 mg/kg, Test Run C, 30 min, 1 mg/kg",10359 ng/mL and 7921 ng/mL
same,Plasma Concentrations,"IV at 1 mg/kg, Test Run C, 1 hr, 1 mg/kg",2665 ng/mL and 2793 ng/mL
same,Plasma Concentrations,"IV at 1 mg/kg, Test Run C, 2 hr, 1 mg/kg",795 ng/mL and 2362 ng/mL and 1667 ng/mL
same,Plasma Concentrations,"IV at 1 mg/kg, Test Run C, 3 hr, 1 mg/kg",404 ng/mL and 562 ng/mL
same,Plasma Concentrations,"IV at 1 mg/kg, Test Run C, 4 hr, 1 mg/kg",608 ng/mL and 1223 ng/mL and 1068 ng/mL
same,Plasma Concentrations,"IV at 1 mg/kg, Test Run C, 6 hr, 1 mg/kg",208 ng/mL and 245 ng/mL
same,Plasma Concentrations,"IV at 1 mg/kg, Test Run D, 2 min, 1 mg/kg",7875 ng/mL and 5900 ng/mL
same,Plasma Concentrations,"IV at 1 mg/kg, Test Run D, 15 min, 1 mg/kg",7239 ng/mL and 2016 ng/mL and 897 ng/mL
same,Plasma Concentrations,"IV at 1 mg/kg, Test Run D, 30 min, 1 mg/kg",2356 ng/mL and 1189 ng/mL
same,Plasma Concentrations,"IV at 1 mg/kg, Test Run D, 1 hr, 1 mg/kg",1250 ng/mL and 1614 ng/mL and 3149 ng/mL
same,Plasma Concentrations,"IV at 1 mg/kg, Test Run D, 2 hr, 1 mg/kg",1004 ng/mL and 1055 ng/mL
same,Plasma Concentrations,"IV at 1 mg/kg, Test Run D, 3 hr, 1 mg/kg",451 ng/mL and 557 ng/mL and 1009 ng/mL
same,Plasma Concentrations,"IV at 1 mg/kg, Test Run D, 4 hr, 1 mg/kg",153 ng/mL and 587 ng/mL and 506 ng/mL
same,Plasma Concentrations,"IV at 1 mg/kg, Test Run D, 6 hr, 1 mg/kg",84 ng/mL and 158 ng/mL
same,concentration at 2 min,"plasma, iv, 1 mg/kg, IV at 1 mg/kg, 2 min, Test Run D table, read-out: Plasma Concentrations, Mean ± SE",11600 ± 2770 ng/mL
same,concentration at 15 min,"plasma, iv, 1 mg/kg, IV at 1 mg/kg, 15 min, Test Run D table, read-out: Plasma Concentrations, Mean ± SE",7300 ± 2250 ng/mL
